Measurements: patent US12018093B2, “Hemiasterlin derivatives and antibody-drug conjugates including same” (priority 2017, dated 2024)
*1 amine or outer side, *2 acyl side, *3 side chain or, on linkers, in order; H or OH if unused. Where a SMILES comes first, the peptide text is derived from it. [ ]: non-standard residue; d: D form. NMeTrp(1,β,β-Me3) = CN[C@H](C(=O)O)C(C)(C)c1cn(C)c2ccccc12; X1 = C/C(=C\[C@H](C(C)C)N(C)[*:1])C(=O)[*:2]; Tle = CC(C)(C)[C@H](N)C(=O)O

Experiments:
porcine tubulin = porcine tubulin (Sus scrofa, UniProt P02550+P02554); assay: Activity for inhibiting microtubule polymerization using porcine tubulins (2), microtubule polymerization rate; conditions: 60 minutes after assay initiation; relative to wells without compound; lower = stronger inhibition
in vitro = conditions: PAMPA, pH 7.4
Procedure: By the parallel artificial membrane permeability assay (PAMPA), the membrane permeability of compounds of Examples was examined as follows: To the donor plate, System solution (pION inc.) and GIT Lipid-0 (pION inc.) were added in an amount of 200 μL and 4 μL for each well, respectively. To the acceptor plate, Acceptor Sink Buffer (pION inc.) was added in an amount of 200 μL. Both plates were superposed and incubated at 37° C. for 4 hours, and then, UVs in the solutions on the side of acceptor and on the side of donor were measured with an UV plate reader (190 to 500 nm). Compounds with poor UV absorption were measured by LC-MS. The permeability coefficient Pe (10^−6 cm/sec) of the drug was calculated by the following formula.

Karpas-299 cells = assay: Cellular toxicity test (1), CellTiter-Glo, Karpas-299; format: cell-based; conditions: Homo sapiens, 96 h, cultured 4 days, cell viability
Procedure: SU-DHL-1 cells (American Type Culture Collection, hereinafter, ATCC) and Karpas-299 cells (European Collection of Authenticated Cell Cultures, hereinafter, ECACC), which are human lymphoma cell lines, were cultured in RPMI 1640 (GIBCO) containing 10% fetal bovine serum (MP Biomedicals) (hereinafter, referred to as the “culture medium” in this test). SU-DHL-1 cells and Karpas-299 cells were prepared to be 2×10^6 cells/mL in the culture medium, and were added to a 96 well microplate for cell culturing in an amount of 50 μL for each well. Compounds of Examples or hemiasterlin 4 times diluted with the culture medium in 8 stages were added to the microplate in an amount of 50 μL for each well. To wells to which the test substance was not added, the culture medium was added in an amount of 50 μL for each well. These were cultured at 37 degree under 5% CO2 for 4 days. After culturing, the microplate was taken out from the incubator, and was left at rest at room temperature for 10 minutes. To each well, 50 μL of CellTiter-Glo Luminescent Cell Viability Assay (Promega) was added, and the resultant mixture was stirred. This mixture was incubated at a dark place for 20 minutes. Using a microplate luminometer, luminescence at each well was measured, thereby calculating the cell viability for each concentration of the test substance. From the cell viability, the IC50 value of the test substance was determined.
The IC50 value was calculated by the following formula: IC50(nM)=antilog(LOG10(a/b)×(e−d)/(c−d)+LOG10b) • a: concentration a of test substance • b: concentration b of test substance • c: cell viability upon adding test substance with concentration a • d: cell viability upon adding test substance with concentration b • e: intermediate value between maximum and minimum among cell viabilities upon • adding test substances with different concentrations (a and b are concentrations crossing the cell viability e, and a>b is indicated).
The cell viability at each concentration was calculated by the following formula: Cell Viability (%)=a′/b′×100 • a′: mean value of luminescence amount of wells to which test substance was added (n=6) • b′: mean value of luminescence amount of wells to which test substance was not added (n=6) • (n represents the number of evaluations performed per test substance concentration).

Sequence of porcine tubulin (P02554 whole entry): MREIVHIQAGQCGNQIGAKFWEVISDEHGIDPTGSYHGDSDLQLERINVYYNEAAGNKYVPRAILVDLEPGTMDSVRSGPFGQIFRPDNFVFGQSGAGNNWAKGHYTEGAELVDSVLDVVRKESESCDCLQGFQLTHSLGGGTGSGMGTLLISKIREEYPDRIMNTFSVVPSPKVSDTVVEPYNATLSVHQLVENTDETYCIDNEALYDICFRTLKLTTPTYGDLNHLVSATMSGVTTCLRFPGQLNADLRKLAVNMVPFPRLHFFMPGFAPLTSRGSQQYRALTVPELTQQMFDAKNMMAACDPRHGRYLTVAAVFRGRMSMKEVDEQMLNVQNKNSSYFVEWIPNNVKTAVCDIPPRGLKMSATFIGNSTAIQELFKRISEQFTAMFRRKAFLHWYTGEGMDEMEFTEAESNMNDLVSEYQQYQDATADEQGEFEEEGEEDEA
Sequence of porcine tubulin (P02550 whole entry): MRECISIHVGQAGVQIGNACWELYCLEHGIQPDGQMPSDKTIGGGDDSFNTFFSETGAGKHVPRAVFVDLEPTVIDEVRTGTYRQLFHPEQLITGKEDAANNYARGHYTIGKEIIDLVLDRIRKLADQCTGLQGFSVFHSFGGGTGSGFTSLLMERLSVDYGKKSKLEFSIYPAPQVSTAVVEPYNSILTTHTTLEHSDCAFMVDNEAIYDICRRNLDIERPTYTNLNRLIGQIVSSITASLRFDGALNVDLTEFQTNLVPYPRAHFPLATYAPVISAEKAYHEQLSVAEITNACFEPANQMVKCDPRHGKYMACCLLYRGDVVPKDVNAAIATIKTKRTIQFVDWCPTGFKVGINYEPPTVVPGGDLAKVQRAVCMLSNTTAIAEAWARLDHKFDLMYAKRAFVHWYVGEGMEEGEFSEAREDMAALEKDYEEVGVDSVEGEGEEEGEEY

Row | SMILES | Microtubule polymerization rate (%) (porcine tubulin) | Papp (in vitro) | IC50 (Karpas-299 cells) | Papp at 4 h (in vitro)
1 | CN[C@H](C(=O)N[C@H](C(=O)N(C)[C@H](/C=C(\C)C(=O)N[C@H](CCC(=O)O)C(=O)O)C(C)C)C(C)(C)C)C(C)(C)c1cccc(F)c1 [Example 56] | 7% | 7 nm/s | 0.275 µM | –
2 | CN[C@H](C(=O)N[C@H](C(=O)N(C)[C@H](/C=C(\C)C(=O)N[C@H](CCC(=O)O)C(=O)O)C(C)C)C(C)(C)C)C(C)(C)c1cccc(C#N)c1 [Example 60] | 6% | < 1 nm/s | 0.406 µM | –
3 | CN[C@H](C(=O)N[C@H](C(=O)N(C)[C@H](/C=C(\C)C(=O)N[C@@H](CCC(=O)O)C(=O)O)C(C)C)C(C)(C)C)C(C)(C)c1cn(C)c2ccccc12 [Example 6] | – | < 1 nm/s | 0.034 µM | –
4 | CN[C@H](C(=O)N[C@H](C(=O)N(C)[C@H](/C=C(\C)C(=O)N[C@H](CCC(=O)O)C(=O)O)C(C)C)C(C)(C)C)C(C)(C)c1ccc(C(=O)O)cc1 [Example 71] | 4% | < 1 nm/s | 0.701 µM | –
5 | CN[C@H](C(=O)N[C@H](C(=O)N(C)[C@H](/C=C(\C)C(=O)N[C@H](CCC(=O)O)C(=O)O)C(C)C)C(C)(C)C)C(C)(C)c1cccc(C)c1 [Example 68] | 4% | < 1 nm/s | 0.0265 µM | –
6 | CN[C@H](C(=O)N[C@H](C(=O)N(C)[C@H](/C=C(\C)C(=O)N[C@H](CCC(=O)O)C(=O)O)C(C)C)C(C)(C)C)C(C)(C)C1CCCCC1 [Example 58] | 5% | 90 nm/s | > 1 µM | –
7 | C/C(=C\[C@H](C(C)C)N(C)C(=O)[C@@H](NC(=O)[C@@H](N)C(C)(C)c1cn(C)c2ccccc12)C(C)(C)C)C(=O)N[C@H](CCC(=O)O)C(=O)O [Example 2, β,β,1-Trimethyl-L-tryptophyl-N-[(3S,4E)-6-{[(1R)-1,3-dicarboxypropyl]amino}-2,5-dimethyl-6-oxohex-4-en-3-yl]-N,3-dimethyl-L-valinamide] | 4% | 2 nm/s | > 0.125 µM | –
8 | CNC(C(=O)N[C@H](C(=O)N(C)[C@H](/C=C(\C)C(=O)N[C@H](CCC(=O)O)C(=O)O)C(C)C)C(C)(C)C)C(C)(C)c1ccc(C(=O)O)cc1 (stereo partly shown) [Example 70] | – | 9 nm/s | 0.721 µM | –
9 | CN[C@H](C(=O)N[C@H](C(=O)N(C)[C@H](/C=C(\C)C(=O)N[C@H](CCC(=O)O)C(=O)O)C(C)C)C(C)(C)C)C(C)(C)c1ccc(C(=O)OC(C)(C)C)cc1 [Example 66] | 9% | < 1 nm/s | > 1 µM | –
10 | CNC(C(=O)N[C@H](C(=O)N(C)[C@H](/C=C(\C)C(=O)N[C@H](CCC(=O)O)C(=O)O)C(C)C)C(C)(C)C)C(C)(C)c1ccc(O)cc1 (stereo partly shown) [Example 59] | 2% | 5 nm/s | 0.412 µM | –
11 | CN[C@H](C(=O)N[C@H](C(=O)N(C)[C@H](/C=C(\C)C(=O)N[C@H](CCC(=O)O)C(=O)O)C(C)C)C(C)(C)C)C(C)(C)c1cc(C)cc(C)c1 [Example 62] | 6% | – | – | –
12 | CN[C@H](C(=O)N[C@H](C(=O)N(C)[C@H](/C=C(\C)C(=O)N[C@@H](CC(=O)O)C(=O)N[C@@H](CC(=O)O)C(=O)N[C@@H](CC(=O)O)C(=O)N[C@@H](CC(=O)O)C(=O)N[C@@H](CC(=O)O)C(=O)O)C(C)C)C(C)(C)C)C(C)(C)c1cn(C)c2ccccc12 [Example 3, N-{(2E,4S)-2,5-Dimethyl-4-[methyl(N,β,β,1-tetramethyl-L-tryptophyl-3-methyl-L-valyl)amino]hex-2-enoyl}-L-α-aspartyl-L-t-aspartyl-L-α-aspartyl-L-α-aspartyl-L-α-aspartic acid] (H-[NMeTrp(1,β,β-Me3)][Tle][X1]DDDDD-OH) | 3% | – | > 5 µM | < 1 nm/s
13 | CN[C@H](C(=O)N[C@H](C(=O)N(C)[C@H](/C=C(\C)C(=O)N[C@H](CCC(=O)O)C(=O)O)C(C)C)C(C)(C)C)C(C)(C)c1cccc(C(F)(F)F)c1 [Example 55] | 16% | < 1 nm/s | 0.0346 µM | –
14 | C/C(=C\[C@H](C(C)C)N(C)C(=O)[C@@H](NC(=O)[C@H]1CCCCN1C(C)C)C(C)(C)C)C(=O)N[C@H](CCC(=O)O)C(=O)O [Example 57] | 5% | < 1 nm/s | > 1 µM | –
15 | CN[C@H](C(=O)N[C@H](C(=O)N(C)[C@H](/C=C(\C)C(=O)N[C@@H](COP(=O)(O)O)C(=O)O)C(C)C)C(C)(C)C)C(C)(C)c1ccccc1 [Example 54] | – | – | 0.0222 µM | –
16 | CCOC(=O)[C@H](CCC(=O)O)NC(=O)/C(C)=C/[C@H](C(C)C)N(C)C(=O)[C@@H](NC(=O)[C@@H](NC)C(C)(C)c1cn(C)c2ccccc12)C(C)(C)C [Example 13] | 21% | – | – | –
17 | CN[C@H](C(=O)N[C@H](C(=O)N(C)[C@H](/C=C(\C)C(=O)N[C@@H](CCC(=O)OC)C(=O)OC)C(C)C)C(C)(C)C)C(C)(C)c1cn(C)c2ccccc12 [Example 72] | 1% | < 1 nm/s | 0.106 µM | –
18 | CN[C@H](C(=O)N[C@H](C(=O)N(C)[C@H](/C=C(\C)C(=O)N[C@H](CCCCN)C(=O)O)C(C)C)C(C)(C)C)C(C)(C)c1cn(C)c2ccccc12 [Example 5] | – | – | 0.0872 µM | –
19 | CN[C@H](C(=O)N[C@H](C(=O)N(C)[C@H](/C=C(\C)C(=O)N[C@H](CCC(=O)O)C(=O)O)C(C)C)C(C)(C)C)C(C)(C)c1cccc(Br)c1 [Example 69] | 5% | < 1 nm/s | 0.0971 µM | –
20 | CCOC(=O)CC[C@@H](NC(=O)/C(C)=C/[C@H](C(C)C)N(C)C(=O)[C@@H](NC(=O)[C@@H](N)C(C)(C)c1cn(C)c2ccccc12)C(C)(C)C)C(=O)OCC [Example 1, (2R)-2-{[(2E,4S)-4-{[(2S)-2-{[(2S)-2-Amino-3-methyl-3-(1-methyl-1H-indol-3-yl)butanoyl]amino}-3,3-dimethylbutanoyl](methyl)amino}-2,5-dimethylhex-2-enoyl]amino}pentane diethyl diester] | – | – | 0.0939 µM | –
21 | CN[C@H](C(=O)N[C@H](C(=O)N(C)[C@H](/C=C(\C)C(=O)N[C@@H](CCC(=O)N[C@@H](CCC(=O)O)C(=O)O)C(=O)N[C@@H](CCC(=O)O)C(=O)O)C(C)C)C(C)(C)C)C(C)(C)c1cn(C)c2ccccc12 [Example 47] (H-[NMeTrp(1,β,β-Me3)][Tle][X1]E(Glu)E-OH) | 3% | < 1 nm/s | 0.773 µM | –
22 | CN[C@H](C(=O)N[C@H](C(=O)N(C)[C@H](/C=C(\C)C(=O)N[C@H](CCC(=O)O)C(=O)O)C(C)C)C(C)(C)C)C(C)(C)c1ccc2ccccc2c1 [Example 64] | – | – | 0.03 µM | –
23 | CN[C@H](C(=O)N[C@H](C(=O)N(C)[C@H](/C=C(\C)C(=O)N[C@H](CCC(=O)N[C@@H](CCCCN)C(=O)O)C(=O)O)C(C)C)C(C)(C)C)C(C)(C)c1cn(C)c2ccc(F)cc12 [Example 52] | – | < 1 nm/s | 0.23 µM | –
24 | CN[C@@H](C(=O)N[C@H](C(=O)N(C)[C@H](/C=C(\C)C(=O)N[C@H](CCC(=O)O)C(=O)O)C(C)C)C(C)(C)C)C(C)(C)c1cccc(Br)c1 [Example 65] | – | < 1 nm/s | > 1 µM | –
25 | CN[C@H](C(=O)N[C@H](C(=O)N(C)[C@H](/C=C(\C)C(=O)N[C@@H](CS(=O)(=O)O)C(=O)O)C(C)C)C(C)(C)C)C(C)(C)c1ccccc1 [Example 53] | – | < 1 nm/s | 0.122 µM | –
